Laboratory results reported in patent US20090215857A1 (Pfizer Products Inc., priority 2005, published 2009).
pKi: −log10 of the molar value. Structures can show the parent of a compound that is named as a salt.

What was measured:
[1] = molecular target: T1, human norepinephrine transporter (Homo sapiens, UniProt P23975); assay: hNET receptor binding ([125I]-RTI-55 radioligand); details: membranes of HEK-293 cells transfected with human norepinephrine transporter cDNA; 50 pM [125I]-RTI-55; IC50 converted by Cheng-Prusoff; read-out: NET Ki
T1 construct: expressed in transfected cells; host or cells: HEK-293
T1 sequence (P23975 whole entry): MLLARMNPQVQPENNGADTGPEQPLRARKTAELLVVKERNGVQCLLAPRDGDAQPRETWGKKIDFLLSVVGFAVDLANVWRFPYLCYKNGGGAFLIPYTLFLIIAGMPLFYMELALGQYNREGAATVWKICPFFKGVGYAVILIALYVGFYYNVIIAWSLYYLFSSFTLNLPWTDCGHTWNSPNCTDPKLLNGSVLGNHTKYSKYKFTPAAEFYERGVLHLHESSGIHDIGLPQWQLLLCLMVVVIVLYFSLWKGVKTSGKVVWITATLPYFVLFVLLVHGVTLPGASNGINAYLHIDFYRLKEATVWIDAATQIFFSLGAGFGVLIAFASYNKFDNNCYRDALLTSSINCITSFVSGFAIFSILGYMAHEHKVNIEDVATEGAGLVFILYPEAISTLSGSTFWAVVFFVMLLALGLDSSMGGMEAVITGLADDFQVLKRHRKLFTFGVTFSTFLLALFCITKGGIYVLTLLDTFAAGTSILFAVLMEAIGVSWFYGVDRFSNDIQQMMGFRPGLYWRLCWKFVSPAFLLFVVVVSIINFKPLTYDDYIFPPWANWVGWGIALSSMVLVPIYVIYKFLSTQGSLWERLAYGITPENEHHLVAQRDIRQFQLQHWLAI
Method: (§1) Cell pastes of HEK-293 cells transfected with a human norepinephrine transporter cDNA were prepared. The cell pastes were resuspended in 400 to 700 ml of Krebs-HEPES assay buffer (25 mM HEPES, 122 mM NaCl, 3 mM KCl, 1.2 mM MgSO4, 1.3 mM CaCl2, and 11 mM glucose, pH 7.4) with a Polytron homogenizer at setting 7 for 30 seconds. Aliquots of membranes (5 mg/ml protein) were stored in liquid nitrogen until used.
The binding assay was set up in Beckman deep-well polypropylene plates with a total volume of 250 μl containing: test compound (10^−5M to 10^−12M), cell membranes, and 50 pM [^125I]-RTI-55 (Perkin Elmer, NEX-272; specific activity 2200 Ci/mmol). The reaction was incubated by gentle agitation for 90 minutes at room temperature and was terminated by filtration through Whatman GF/C filter plates using a Brandel 96-well plate harvester. Scintillation fluid (100 μl) was added to each well, and bound [^125I]-RTI-55 was determined using a Wallac Trilux Beta Plate Counter. Test compounds were run in duplicate, and specific binding was defined as the difference between binding in the presence and absence of 10 μM desipramine.
Excel and GraphPad Prism software were used for data calculation and analysis. IC50 values were converted to K, values using the Cheng-Prusoff equation.

[2] = molecular target: T2, human serotonin transporter (Homo sapiens, UniProt P31645); assay: hSERT receptor binding ([125I]-RTI-55 radioligand); details: membranes of HEK-293 cells transfected with human serotonin transporter cDNA; 50 pM [125I]-RTI-55; IC50 converted by Cheng-Prusoff; read-out: SERT Ki
T2 construct: expressed in transfected cells; host or cells: HEK-293
T2 sequence (P31645 whole entry): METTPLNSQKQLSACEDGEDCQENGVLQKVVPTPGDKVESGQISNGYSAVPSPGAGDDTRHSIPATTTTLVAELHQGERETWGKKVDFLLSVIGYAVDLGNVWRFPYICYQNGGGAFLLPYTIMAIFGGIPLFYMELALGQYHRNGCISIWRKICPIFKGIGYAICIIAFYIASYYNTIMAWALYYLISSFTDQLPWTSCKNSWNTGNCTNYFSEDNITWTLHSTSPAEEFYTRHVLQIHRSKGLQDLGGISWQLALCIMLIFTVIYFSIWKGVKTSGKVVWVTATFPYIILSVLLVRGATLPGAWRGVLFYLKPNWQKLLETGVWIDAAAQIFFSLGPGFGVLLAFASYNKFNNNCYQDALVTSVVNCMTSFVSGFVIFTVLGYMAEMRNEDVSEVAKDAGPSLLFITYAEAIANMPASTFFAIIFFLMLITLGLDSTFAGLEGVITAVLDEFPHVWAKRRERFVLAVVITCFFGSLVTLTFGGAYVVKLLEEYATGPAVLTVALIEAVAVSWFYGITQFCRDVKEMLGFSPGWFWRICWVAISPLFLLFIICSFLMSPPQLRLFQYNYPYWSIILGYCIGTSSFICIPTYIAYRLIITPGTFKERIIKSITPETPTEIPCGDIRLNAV
Method: as §1, with “serotonin” for “norepinephrine”, “Setting” for “setting”, “(˜2.5” for “(5”
Assays were set up in FlashPlates pre-coated with 0.1% PEI in a total volume of 250 μl containing: test compound (10^−5M to 10^−12M), cell membranes, and 50 pM [^125I]-RTI-55 (Perkin Elmer, NEX-272; specific activity 2200 Ci/mmol). The reaction was incubated and gently agitated for 90 minutes at room temperature, and terminated by removal of assay volume. Plates were covered, and bound [^125I]-RTI-55 was determined using a Wallac Trilux Beta Plate Counter. Test compounds were run in duplicate, and specific binding was defined as the difference between binding in the presence and absence of 10 μM citalopram.
Excel and GraphPad Prism software were used for data calculation and analysis. IC50 values were converted to Ki values using the Cheng-Prusoff equation.

pKi [1]	pKi [2]	Compound
7.26	6.57	c1ccc(-c2cccc3ccccc23)c(CO[C@H]2CCNC2)c1 [Example D-15, (S)-3-(2-Naphthalen-1-yl-benzyloxy)-pyrrolidine]
7.40	7.57	Cc1cc(-c2ccccc2CO[C@H]2CCNC2)ccc1F [Example D-11, (S)-3-(4′-Fluoro-3′-methyl-biphenyl-2-ylmethoxy)-pyrrolidine]
5.99	5.98	CC(C)OC(=O)c1ccc(-c2ccc(F)cc2CO[C@H]2CCNC2)cc1 [Example D-88, (S)-4′-Fluoro-2′-(pyrrolidine-3-yloxymethyl)-biphenyl-4-carboxylic acid isopropyl ester]
6.26	5.56	c1ccc(-c2ccccc2-c2ccccc2CO[C@H]2CCNC2)cc1 [Example D-34, (S)-3-([1,1′,2′,1″]Terphenyl-2-ylmethoxy)-pyrrolidine]
5.95	5.84	COc1cccc(-c2ccc(F)cc2CO[C@H]2CCNC2)c1F [Example D-93, (S)-3-(4,2′-Difluoro-3′-methoxy-biphenyl-2-ylmethoxy)-pyrrolidine]
5.87	5.85	COc1ccc(-c2ccc(F)cc2CO[C@H]2CCNC2)c(OC)c1 [Example D-77, (S)-3-(4-Fluoro-2′,4′-dimethoxy-biphenyl-2-ylmethoxy)-pyrrolidine]
6.84	7.30	Fc1ccc(-c2ccc(F)c(Cl)c2)c(CO[C@H]2CCNC2)c1 [Example D-73, (S)-3-(3′-Chloro-4,4′-difluoro-biphenyl-2-ylmethoxy)-pyrrolidine]
5.31	5.75	c1ccc(-c2ccncc2)c(CO[C@H]2CCNC2)c1 [Example A-28, (S)-4-[2-(Pyrrolidin-3-yloxymethyl)-phenyl]-pyridine hydrochloride]
6.58	7.30	Fc1ccc(-c2cc(Cl)cc(Cl)c2)c(CO[C@H]2CCNC2)c1 [Example D-65, (S)-3-(3′,5′-Dichloro-4-fluoro-biphenyl-2-ylmethoxy)-pyrrolidine]
6.50	6.76	c1ccc(-c2ccc3ccccc3c2)c(CO[C@H]2CCNC2)c1 [Example D-29, (S)-3-(2-Naphthalen-2-yl-benzyloxy)-pyrroldine]
5.66	6.68	c1cncc(-c2ccccc2CO[C@H]2CCNC2)c1 [Example A-27, (S)-3-[2-(Pyrrolidin-3-yloxymethyl)-phenyl]-pyridine hydrochloride]
6.59	7.11	Cc1cccc(-c2ccc(F)cc2CO[C@H]2CCNC2)c1C [Example D-82, (S)-3-(4-Fluoro-2′,3′-dimethyl-biphenyl-2-ylmethoxy)-pyrrolidine]
7.09	6.73	Fc1cccc(-c2ccccc2CO[C@@H]2CCNC2)c1F [Example A-15, (R)-3-(2′,3′-Difluoro-biphenyl-2-ylmethoxy)-pyrrolidine fumarate]
5.89	6.13	CCc1ccc(-c2ccc(F)cc2CO[C@H]2CCNC2)cc1 [Example D-76, (S)-3-(4′-Ethyl-4-fluoro-biphenyl-2-ylmethoxy)-pyrrolidine]
5.41	5.42	c1ccc(-c2ccc3c(c2)OCCO3)c(CO[C@H]2CCNC2)c1 [Example D-46]
	6.28	CCc1ccc(-c2ccccc2CO[C@H]2CCNC2)cc1 [Example D-39, (S)-(4′-Ethyl-biphenyl-2-ylmethoxy)-pyrrolidine]
	6.81	Cc1ccc(C)c(-c2ccccc2CO[C@H]2CCNC2)c1 [Example D-23, (S)-3-(2′,5′-Dimethyl-biphenyl-2-ylmethoxy)-pyrrolidine]
	7.15	Fc1ccc(Cl)cc1-c1ccccc1CO[C@H]1CCNC1 [Example D-9, (S)-3-(5′-Chloro-2′-fluoro-biphenyl-2-ylmethoxy)-pyrrolidine]
7.30		Cc1cc(F)ccc1-c1ccccc1CO[C@H]1CCNC1 [Example A-12, (S)-3-(4′-Fluoro-2′-methyl-biphenyl-2-ylmethoxy)-pyrrolidine hydrochloride]
